The record followed here is US20240239799A1, “(S)-1-(5-((PYRIDIN-3-YL)THIO)PYRAZIN-2-YL)-4'H,6'H-SPIRO[PIPERIDINE-4,5'-PYRROLO [1,2-B]PYRAZOL]-4'-AMINE DERIVATIVES AND SIMILAR COMPOUNDS AS SHP2 INHIBITORS FOR THE TREATMENT OF E.G. CANCER” (C.N.C.C.S. S.C.A.R.L. COLLEZIONE NAZIONALE DEI COMPOSTI …, priority 2021, published 2024).

Each structure is given as a SMILES string. pIC50: −log10 of the molar value. Read-outs that look alike come from different tables or passages of the source.

The target of experiment [1] is T1, SHP-2 enzyme (Met1-Leu525) (Homo sapiens, UniProt Q06124).
T1 construct: synthetized by Origene, Met1-Leu525, cat #TP750155; purchased Origene TP750155
T1 sequence (Q06124 1-525): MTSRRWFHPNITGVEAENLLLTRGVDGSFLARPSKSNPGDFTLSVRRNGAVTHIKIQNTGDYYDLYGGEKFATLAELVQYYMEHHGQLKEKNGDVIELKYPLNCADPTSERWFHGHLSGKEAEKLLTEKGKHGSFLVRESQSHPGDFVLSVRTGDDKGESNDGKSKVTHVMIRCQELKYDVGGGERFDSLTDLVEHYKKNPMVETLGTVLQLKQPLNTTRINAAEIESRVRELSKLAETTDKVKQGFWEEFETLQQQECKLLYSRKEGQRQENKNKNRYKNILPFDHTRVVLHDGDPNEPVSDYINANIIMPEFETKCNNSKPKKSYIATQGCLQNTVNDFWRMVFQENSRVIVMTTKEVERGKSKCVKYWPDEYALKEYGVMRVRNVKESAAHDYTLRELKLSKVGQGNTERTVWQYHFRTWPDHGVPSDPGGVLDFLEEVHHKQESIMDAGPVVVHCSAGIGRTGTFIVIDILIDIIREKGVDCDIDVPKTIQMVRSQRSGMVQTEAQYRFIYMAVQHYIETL
The experiment is described as follows: SHP2 inhibition enzymatic assay (DiFMUP substrate, IRS1 peptide activation). Conditions: 0.5 nM SHP-2, 500 nM IRS1 peptide, 75 μM DiFMUP; read-out: SHP2wt - IC50. The experiment is classed as biochemical. Here is the method: Assay volume of 20 μL/well was assembled in 384 well black polystyrene low-binding microplates (Greiner), using the following buffer: 60 mM HEPES pH 7.2, 75 mM NaCl, 75 mM KCl, 1 mM EDTA pH 8, 0.05% tween-20, 5 mM DTT. The SHP-2 enzyme (synthetized by Origene, Met1-Leu525, cat #TP750155) was used at a final concentration of 0.5 nM.
Briefly, DMSO serially diluted testing compounds were transferred to the bottom of the assay plate. SHP2 was then added together with the IRS1 peptide 30 min post incubation, the DiFMUP substrate was added to the reaction and incubated 30 min at rt. […] The fluorescence was detected by a microplate reader (Envision, PerkinElmer) according to the DiFMUP excitation and emission wavelength. The lower the fluorescence the higher the SHP2 inhibition.
The percentage inhibition is fitted against the compound dilutions with a four-parameter logistic regression. The inflection point (i.e. the concentration at which half-maximal inhibition is achieved) is the IC50.

Experiment [2] deals with phospho-ERK1/2 (Thr202/Tyr204) in KYSE-520 cells. The experiment is described as follows: Phospho-ERK cellular assay (TR-FRET). It is filed as cell-based. The following applies: KYSE-520 cells, 2 h at 37° C., read-out: pERK IC50. Here is the method: ERK phosphorylation was detected using the “Advanced phospho-ERK1/2 (Thr202/Tyr204)” TR-FRET kit (Cisbio, Cat #64AERPEG/H), following the manufacturer reagents and instructions.
Briefly, 20.000/well KYSE-520 cells (DSMZ ACC 371) were plated in 6 μL RPMI-1640 (Invitrogen) growth medium, into 384 white low-volume high base TC microplates (Greiner). After an overnight incubation, cells were treated with DMSO serial diluted compounds and incubated for 2 h at 37° C. After incubation, 2 μL/well of 4X Lysis Buffer (Cisbio 64KL1FDF), were added and incubated with cells for 30 min on gentle shaking. Finally, lysates were added with 2 μL/well of Eu cryptate (donor) and D2 (acceptor) conjugated antibodies (as provided by the Cisbio kit #64AERPEG/H) diluted 1:100 in Detection Buffer (as provided by the Cisbio kit #64AERPEG/H). Plates were then sealed and incubated at rt in the dark. After an overnight incubation, the TR-FRET signal was detected on a suitable reader (Envision, PerkinElmer). The lower the TR-FRET signal the higher the higher the SHP2 inhibition in cells.
The activity of each compound dilution was calculated as percentage between vehicle DMSO treated cells and no cells, 0% inhibition and 100% inhibition respectively. The percentage activity is fitted against the compound dilutions with a four-parameter logistic regression. The inflection point (i.e. the concentration at which half-maximal inhibition is achieved) is the IC50.

One may read the pIC50 as −log10 of the IC50, conventionally taken in molar units. As to `Nc1ccc(Sc2cnc(N3CCC4(CC3)Cn3nccc3[C@H]4N)cn2)c(Cl)n1` [Example 55, (S)-1-(5-((6-amino-2-chloropyridin-3-yl)thio)pyrazin-2-yl)-4′H,6′H-spiro[piperidine-4,5′-pyrrolo[1,2-b]pyrazol]-4′-amine], the pIC50 in experiment [1] is at least 7.30; in experiment [2] (Homo sapiens, KYSE-520, 2 h), above 7.00.
For `N[C@@H]1c2ccnn2CC12CCN(c1cnc(Sc3ccc4nccn4c3Cl)cn1)CC2` [Example 56, (S)-1-(5-((5-chloroimidazo[1,2-a]pyridin-6-yl)thio)pyrazin-2-yl)-4′H,6′H-spiro[piperidine-4,5′-pyrrolo[1,2-b]pyrazol]-4′-amine], the pIC50 is at least 7.30 in experiment [1] and above 7.00 in experiment [2] (Homo sapiens, KYSE-520, 2 h).
As to `Cc1cc(C)n(-c2nccc(Sc3cnc(N4CCC5(CC4)Cn4nccc4[C@H]5N)cn3)c2Cl)n1` [Example 34, (S)-1-(5-((3-chloro-2-(3,5-dimethyl-1H-pyrazol-1-yl)pyridin-4-yl)thio)pyrazin-2-yl)-4′H,6′H-spiro[piperidine-4,5′-pyrrolo[1,2-b]pyrazol]-4′-amine], the pIC50 in experiment [1] was at least 7.30; in experiment [2] (Homo sapiens, KYSE-520, 2 h) it was above 7.00.
Regarding `Nc1nc(N2CCC3(CC2)Cn2nccc2[C@H]3N)cnc1Sc1ccnc(-n2cccn2)c1Cl` [Example 60, (S)-1-(6-amino-5-((3-chloro-2-(1H-pyrazol-1-yl)pyridin-4-yl)thio)pyrazin-2-yl)-4′H,6′H-spiro[piperidine-4,5′-pyrrolo[1,2-b]pyrazol]-4′-amine], the pIC50 was at least 7.30 in experiment [1] and above 7.00 in experiment [2] (Homo sapiens, KYSE-520, 2 h).
On to `Cc1nc(N2CCC3(CC2)Cn2nccc2[C@H]3N)cc(=O)n1-c1cccc(Cl)c1Cl` [Example 77, (S)-6-(4′-amino-4′H,6′H-spiro[piperidine-4,5′-pyrrolo[1,2-b]pyrazol]-1-yl)-3-(2,3-dichlorophenyl)-2-methylpyrimidin-4(3H)-one], for which the pIC50 in experiment [1] was at least 7.30; in experiment [2] (Homo sapiens, KYSE-520, 2 h) it was 6.30 to 7.00.
For the compound `Cn1cc2c(Cl)c(-c3n[nH]c4nc(N5CCC6(CC5)Cn5nccc5[C@H]6N)cnc34)ccc2n1` [Example 70, (S)-1-(3-(4-chloro-2-methyl-2H-indazol-5-yl)-1H-pyrazolo[3,4-b]pyrazin-6-yl)-4′H,6′H-spiro[piperidine-4,5′-pyrrolo[1,2-b]pyrazol]-4′-amine], the pIC50 was at least 7.30 in experiment [1] and above 7.00 in experiment [2] (Homo sapiens, KYSE-520, 2 h).
For the compound `Nc1nccc(Sc2cnc(N3CCC4(CC3)Cn3nc(CO)c(CO)c3[C@H]4N)c3cncn23)c1Cl` [Example 28, (S)-(4′-amino-1-(5-((2-amino-3-chloropyridin-4-yl)thio)imidazo[1,5-a]pyrazin-8-yl)-4′H,6′H-spiro[piperidine-4,5′-pyrrolo[1,2-b]pyrazole]-2′,3′-diyl)dimethanol], the pIC50 in experiment [1] was 6.52 to 7.30; in experiment [2] (Homo sapiens, KYSE-520, 2 h), above 7.00.
For `Nc1nccc(Sc2ccc3nc(N4CCC5(CC4)Cn4nccc4[C@H]5N)cnc3n2)c1Cl` [Example 73, (S)-1-(6-((2-amino-3-chloropyridin-4-yl)thio)pyrido[2,3-b]pyrazin-2-yl)-4′H,6′H-spiro[piperidine-4,5′-pyrrolo[1,2-b]pyrazol]-4′-amine], the negative-log IC50 (pIC50) in experiment [1] was at least 7.30; in experiment [2] (Homo sapiens, KYSE-520, 2 h), above 7.00.
Turning to `N[C@@H]1c2ccnn2CC12CCN(c1cnc(Sc3ccnc4c3OC[C@@H]3CC5(CC5)CN43)cn1)CC2` [Example 25, (S)-1-(5-(((S)-6a′,7′-dihydro-6′H,9′H-spiro[cyclopropane-1,8′-pyrido[3,2-b]pyrrolo[1,2-d][1,4]oxazin]-4′-yl)thio)pyrazin-2-yl)-4′H,6′H-spiro[piperidine-4,5′-pyrrolo[1,2-b]pyrazol]-4′-amine], the pIC50 in experiment [1] was at least 7.30; in experiment [2] (Homo sapiens, KYSE-520, 2 h) it was above 7.00.
In the case of `N[C@@H]1c2ccnn2CC12CCN(c1cnc(Sc3ccnc(-n4ccnc4)c3Cl)cn1)CC2` [Example 59, (S)-1-(5-((3-chloro-2-(1H-imidazol-1-yl)pyridin-4-yl)thio)pyrazin-2-yl)-4′H,6′H-spiro[piperidine-4,5′-pyrrolo[1,2-b]pyrazol]-4′-amine], the pIC50 in experiment [1] was at least 7.30; in experiment [2] (Homo sapiens, KYSE-520, 2 h) it was above 7.00.
For `N#Cc1cn2ccc(Sc3cnc(N4CCC5(CC4)Cn4nccc4[C@H]5N)cn3)c(Cl)c2n1` [Example 57, (S)-7-((5-(4′-amino-4′H,6′H-spiro[piperidine-4,5′-pyrrolo[1,2-b]pyrazol]-1-yl)pyrazin-2-yl)thio)-8-chloroimidazo[1,2-a]pyridine-2-carbonitrile], the pIC50 in experiment [1] is at least 7.30; in experiment [2] (Homo sapiens, KYSE-520, 2 h), above 7.00.
Take `N[C@@H]1c2ccnn2CC12CCN(c1cnc(Sc3ccnc4c(F)cccc34)cn1)CC2` [Example 79, (S)-1-(5-((8-fluoroquinolin-4-yl)thio)pyrazin-2-yl)-4′H,6′H-spiro[piperidine-4,5′-pyrrolo[1,2-b]pyrazol]-4′-amine]: the pIC50 in experiment [1] was at least 7.30; in experiment [2] (Homo sapiens, KYSE-520, 2 h), above 7.00.
Regarding `N[C@@H]1c2ccnn2CC12CCN(c1ncc(Sc3ccn4ccnc4c3Cl)n3cncc13)CC2` [Example 32, (S)-1-(5-((8-chloroimidazo[1,2-a]pyridin-7-yl)thio)imidazo[1,5-a]pyrazin-8-yl)-4′H,6′H-spiro[piperidine-4,5′-pyrrolo[1,2-b]pyrazol]-4′-amine], the pIC50 in experiment [1] was at least 7.30; in experiment [2] (Homo sapiens, KYSE-520, 2 h), 6.30 to 7.00.
In the same order, the values of `Cc1nc(N2CCC3(CC2)Cn2nccc2[C@H]3N)c(Cl)c(=O)n1-c1cccc(Cl)c1Cl` [Example 78, (S)-6-(4′-amino-4′H,6′H-spiro[piperidine-4,5′-pyrrolo[1,2-b]pyrazol]-1-yl)-5-chloro-3-(2,3-dichlorophenyl)-2-methylpyrimidin-4(3H)-one] are at least 7.30 and 6.30 to 7.00.
Taken in the same sequence, the figures for `CN(C)C(=O)c1cnn(-c2nccc(Sc3cnc(N4CCC5(CC4)Cn4nccc4[C@H]5N)cn3)c2Cl)c1` [Example 69, (S)-1-(4-((5-(4′-amino-4′H,6′H-spiro[piperidine-4,5′-pyrrolo[1,2-b]pyrazol]-1-yl)pyrazin-2-yl)thio)-3-chloropyridin-2-yl)-N,N-dimethyl-1H-pyrazole-4-carboxamide] were at least 7.30 and above 7.00.
As to `Cc1nc(N2CCC3(CC2)Cn2nccc2[C@H]3N)cc(=O)n1-c1cccc(Cl)c1Cl` (single isomer, unassigned) [Example 77a], the pIC50 in experiment [1] was at least 7.30; in experiment [2], 6.30 to 7.00.
For `Nc1nccc(Sc2ccc(N3CCC4(CC3)Cn3nccc3[C@H]4N)nn2)c1Cl` [Example 35, (S)-1-(6-((2-amino-3-chloropyridin-4-yl)thio)pyridazin-3-yl)-4′H,6′H-spiro[piperidine-4,5′-pyrrolo[1,2-b]pyrazol]-4′-amine], the pIC50 was at least 7.30 in experiment [1] and 6.30 to 7.00 in experiment [2] (Homo sapiens, KYSE-520, 2 h).
For `N[C@@H]1c2ccnn2CC12CCN(c1cnc(Sc3ccnc(-n4cccc4)c3Cl)cn1)CC2` [Example 62, (S)-1-(5-((3-chloro-2-(1H-pyrrol-1-yl)pyridin-4-yl)thio)pyrazin-2-yl)-4′H,6′H-spiro[piperidine-4,5′-pyrrolo[1,2-b]pyrazol]-4′-amine], the pIC50 is at least 7.30 in experiment [1] and above 7.00 in experiment [2] (Homo sapiens, KYSE-520, 2 h).
Taken in the same sequence, the figures for `Cc1cnn2c1[C@@H](N)C1(CCN(c3cnc(Sc4ccnc(N)c4Cl)cn3)CC1)C2` [Example 10, (S)-1-(5-((2-amino-3-chloropyridin-4-yl)thio)pyrazin-2-yl)-3′-methyl-4′H,6′H-spiro[piperidine-4,5′-pyrrolo[1,2-b]pyrazol]-4′-amine] were at least 7.30 and above 7.00.
